# Test results from patent US12091425B2 (AMGEN INC., priority 2016, dated 2024).
# Target: T1, Mcl-1/Bim interaction, recombinant human Mcl-1 (171-327) (Homo sapiens, UniProt Q07820)
# T1 construct: made in house
# Experiment: Cell free Mcl-1: Bim Affinity Assay (Mcl-1 HTRF)
# Format: binding
# Settings: TR-FRET, 0.1 nM Mcl-1 (171-327), 0.05 nM biotin-Bim (51-76)
# Description: Cell free Mcl-1: Bim Affinity Assay (Mcl-1 HTRF)
# The inhibition of the Mcl-1/Bim interaction was measured using a time-resolved fluorescence resonance energy transfer (TR-FRET) assay. […] A biotinylated peptide derived from human Bim (residues 51-76) was purchased from CPC Scientific (San Jose, CA). The TR-FRET assay was conducted in a 384-well white OptiPlatem (PerkinElmer, Waltham, MA) in a total volume of 40 μL. […] The reaction plates were further incubated overnight and then were read on an Envision® multimode reader (PerkinElmer). […] The IC50 values of test compounds were determined from duplicate data by analyzing competition curves using a four-parameter sigmoidal model in GraphPad Prism (GraphPad Software, San Diego, CA) or in Genedata Screener® (Genedata, Basel, Switzerland).
# T1 sequence (Q07820 171-327): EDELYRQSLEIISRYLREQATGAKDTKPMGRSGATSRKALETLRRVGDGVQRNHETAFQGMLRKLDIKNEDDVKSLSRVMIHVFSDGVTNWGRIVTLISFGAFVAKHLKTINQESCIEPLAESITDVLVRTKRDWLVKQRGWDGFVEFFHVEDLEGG
row,IC50,SMILES
1,2.19 nM,CC[C@@H]1CCCC[C@@H](NC(=O)C(C)C)[C@@H]2CC[C@H]2CN2C[C@@]3(CCCc4cc(Cl)ccc43)COc3ccc(cc32)C(=O)NS1(=O)=O [Example 1083]
2,0.461 nM,"O=C1NS(=O)(=O)[C@H](CO)CC/C=C/[C@H](O)[C@@H]2CC[C@H]2CN2C[C@@]3(CCCc4cc(Cl)ccc43)COc3ccc1cc32 (single isomer, unassigned) [Example 445]"
3,1.43 nM,"O=C1NS(=O)(=O)[C@H]2C[C@H](CC[C@H](O)[C@@H]3CC[C@H]3CN3C[C@@]4(CCCc5cc(Cl)ccc54)COc4ccc1cc43)C2 [Example 103, (1S,3′R,6′R,7′S,10′R,12′R)-6-chloro-7′-hydroxy-3,4-dihydro-2H,15′H-spiro[naphthalene-1,22′-[20]oxa[13]thia[1,14]diazapentacyclo[14.7.2.1^10,120^3,6.0^19,24]hexacosa[16,18,24]trien]-15′-one 13′,13′-dioxide]"
4,10.4 nM,"CC[C@@H]1CC/C=C/[C@H](OCc2ccccn2)[C@@H]2CC[C@H]2CN2C[C@@]3(CCCc4cc(Cl)ccc43)COc3ccc(cc32)C(=O)NS1(=O)=O [Example 976, (1S,3′R,6′R,7′S,8′E,12′R)-6-chloro-12′-ethyl-7′-(2-pyridinylmethoxy)-3,4-dihydro-2H,15′H-spiro[naphthalene-1,22′-[20]oxa[13]thia[1,14]diazatetracyclo[14.7.2.0^3,6.0^19,24]pentacosa [8,16,18,24]tetraen]-15′-one 13′,13′-dioxide]"
5,1.09 nM,"CC[C@@H]1CC/C=C/[C@H](OCCN2CCOCC2)[C@@H]2CC[C@H]2CN2C[C@@]3(CCCc4cc(Cl)ccc43)COc3ccc(cc32)C(=O)NS1(=O)=O [Example 984, (1S,3′R,6′R,7′S,8′E,12′R)-6-chloro-12′-ethyl-7′-(2-(4-morpholinyl)ethoxy)-3,4-dihydro-2H,15′H-spiro[naphthalene-1,22′-[20]oxa[13]thia[1,14]diazatetracyclo[14.7.2.0^3,6.0^19,24]pentacosa [8,16,18,24]tetraen]-15′-one 13′,13′-dioxide]"
6,3.45 nM,"CC[C@@H]1CC/C=C/[C@H](NC(=O)C(C)C)[C@@H]2CC[C@H]2CN2C[C@@]3(CCCc4cc(Cl)ccc43)COc3ccc(cc32)C(=O)NS1(=O)=O [Example 1077, N-((1S,3′R,6′R,7′S,8′E,12′R)-6-chloro-12′-ethyl-13′,13′-dioxido-15′-oxo-3,4-dihydro-2H-spiro[naphthalene-1,22′-[20]oxa[13]thia[1,14]diazatetracyclo[14.7.2.0^3,6.0^19,24]pentacosa [8,16,18,24]tetraen]-7′-yl)-2-methylpropanamide]"
7,0.349 nM,"C[C@@H]1CC/C=C/[C@H](OCC(=O)N(C)C)[C@@H]2CC[C@H]2CN2C[C@@]3(CCCc4cc(Cl)ccc43)COc3ccc(cc32)C(=O)NS1(=O)=O [Example 420, 2-(((1S,3′R,6′R,7′S,8′E,12′R)-6-chloro-12′-methyl-13′,13′-dioxido-15′-oxo-3,4-dihydro-2H-spiro[naphthalene-1,22′-[20]oxa[13]thia[1,14]diazatetracyclo[14.7.2.0^3,6.0^19,24]pentacosa [8,16,18,24]tetraen]-7′-yl)oxy)-N,N-dimethylacetamide]"
8,2.91 nM,CC[C@@H]1CC/C=C/[C@H](OCCO[C@H]2CCCCO2)[C@@H]2CC[C@H]2CN2C[C@@]3(CCCc4cc(Cl)ccc43)COc3ccc(cc32)C(=O)NS1(=O)=O (mixture of isomers) [Example 969]
9,1.9 nM,"CC[C@@H]1CC/C=C/[C@H](OCCC2OCCO2)[C@@H]2CC[C@H]2CN2C[C@@]3(CCCc4cc(Cl)ccc43)COc3ccc(cc32)C(=O)NS1(=O)=O [Example 968, (1S,3′R,6′R,7′S,8′E,12′R)-6-chloro-7′-(2-(1,3-dioxolan-2-yl)ethoxy)-12′-ethyl-3,4-dihydro-2H,15′H-spiro[naphthalene-1,22′-[20]oxa[13]thia[1,14]diazatetracyclo[14.7.2.0^3,6.0^19,24]pentacosa [8,16,18,24]tetraen]-15′-one 13′,13′-dioxide]"

row,SMILES,IC50
1,"COCC[C@H]1CC/C=C/[C@H](O)[C@@H]2CC[C@H]2CN2C[C@@]3(CCCc4cc(Cl)ccc43)COc3ccc(cc32)C(=O)NS1(=O)=O (single isomer, unassigned) [Example 443]",1.51 nM
2,"O=C1NS(=O)(=O)C2CCCC(CCC(O)C3CCC3CN3CC4(CCCc5cc(Cl)ccc54)COc4ccc1cc43)C2 (single isomer, unassigned) [Example 106]",16.9 nM
3,"O=C1NS(=O)(=O)C/C=C/CNC(=O)[C@@H]2CC[C@H]2CN2C[C@@]3(CCCc4cc(Cl)ccc43)COc3ccc1cc32 (single isomer, unassigned) [Example 97, (1S,3′R,6′R,10′E)-6-chloro-3,4-dihydro-2H,7′H,15′H-spiro[naphthalene-1,22′-[20]oxa[13]thia[1,8,14]triazatetracyclo[14.7.2.0^3,6.0^19,24]pentacosa[10,16,18,24]tetraen]-7′,15′-dione 13′,13′-dioxide or (1S,3′R,6′R,10′Z)-6-chloro-3,4-dihydro-2H,7′H,15′H-spiro[naphthalene-1,22′-[20]oxa[13]thia[1,8,14]triazatetracyclo[14.7.2.0^3,6.0^19,24]pentacosa[10,16,18,24]tetraen]-7′,15′-dione 13′,13′-dioxide]",12.6 nM

# Same assay, conditions: cell free Mcl-1:Bim TR-FRET, recombinant human Mcl-1 (171-327)
row,SMILES,IC50
1,"COC[C@H]1C/C=C/[C@H](O)[C@@H]2CC[C@H]2CN2C[C@@]3(CCCc4cc(Cl)ccc43)COc3ccc(cc32)C(=O)NS1(=O)=O (single isomer, unassigned) [Example 772]",5.2 nM
2,"CC1COCCC(O)C2CCC2CN2CC3(CCCc4cc(Cl)ccc43)COc3ccc(cc32)C(=O)NS1(=O)=O (single isomer, unassigned) [Example 861]",1.59 nM
3,"O=C(CO)N[C@@H]1CCCCCS(=O)(=O)NC(=O)c2ccc3c(c2)N(C[C@@H]2CC[C@H]21)C[C@@]1(CCCc2cc(Cl)ccc21)CO3 (single isomer, unassigned) [Example 939]",6.67 nM
4,"CC1(C)CCC[C@H](O)[C@@H]2CC[C@H]2CN2C[C@@]3(CCCc4cc(Cl)ccc43)COc3ccc(cc32)C(=O)NS1(=O)=O [Example 770, (1S,3′R,6′R,7′S)-6-chloro-7′-hydroxy-11′,11′-dimethyl-3,4-dihydro-2H,14′H-spiro[naphthalene-1,21′-[19]oxa[12]thia[1,13]diazatetracyclo[13.7.2.0^3,6.0^18,23]tetracosa[15,17,23]trien]-14′-one 12′,12′-dioxide]",1.33 nM
5,"O=C1NS(=O)(=O)CCOCCC[C@@H]2CC[C@H]2CN2C[C@@]3(CCCc4cc(Cl)ccc43)COc3ccc1cc32 (single isomer, unassigned) [Example 815]",1.26 nM
6,"O=C1NS(=O)(=O)CC/C=C/CC(=O)[C@@H]2CC[C@H]2CN2C[C@@]3(CCCc4cc(Cl)ccc43)COc3ccc1cc32 [Example 905, (1S,3′R,6′R,9′E)-6-chloro-3,4-dihydro-2H,7′H,15′H-spiro[naphthalene-1,22′-[20]oxa[13]thia[1,14]diazatetracyclo[14.7.2.0^3,6.0^19,24]pentacosa [9,16,18,24]tetraene]-7′,15′-dione 13′,13′-dioxide]",14.1 nM
7,"O=C1NS(=O)(=O)C[C@@H](O)/C=C/C[C@H](O)[C@@H]2CC[C@H]2CN2C[C@@]3(CCCc4cc(Cl)ccc43)COc3ccc1cc32 (single isomer, unassigned) [Example 597]",1.46 nM
8,"O=C1NS(=O)(=O)[C@H]2CCN(C2)C(=O)CC[C@@H]2CC[C@H]2CN2C[C@@]3(CCCc4cc(Cl)ccc43)COc3ccc1cc32 (single isomer, unassigned) [Example 946]",4.15 nM
